The record followed here is patent US4419351A, “Platinum-dioxopyrimidine complexes” (priority 1978, dated 1983).

Structures are written as SMILES. Some results are limits rather than exact numbers.

One data set deals with L1210 Tumor. Nature of the data set: effects on L1210 tumor (Table 4). The class given is in vivo, BDF Mice. As to conditions: for Survivors: at 200% ILS. From the text: (§1) Tables 4-7, respectively, tabulate the results achieved when employing the complexes of the invention against the L1210, MCDV 12, (Rauscher Leukemia, virus-induced), Ehrlich Ascites and the ADJ PC6A (myeloma) tumors.
^a All experiments were terminated arbitrarily at 200% ILS and any
survivors were tabulated at that time. All therapy was started on the
third day after tumor transplant. Untreated tumor controls died 10-11 day
after transplant. In some instances efforts to reproduce above results
have shown considerable variability.

Data set [1] has as its system ascites Sarcoma-180 tumor. Nature of the data set: chemotherapeutic activity vs ascites Sarcoma-180 tumor, single i.p. injection on day 1 (Table 2 survey). The class given is in vivo, Swiss White mice. As to conditions: for # of cures / Dose of Best % ILS / Toxic Level / Best % ILS (increase in lifespan): carrier saline; for # of cures: 6 animals per test; for Dose of Best % ILS / Toxic Level / Best % ILS (increase in lifespan): single i.p. day 1; for Toxic Level: 2 or more of 6 animals died within 8 days; for Best % ILS (increase in lifespan): max 100%. The method, then:
The chemotherapeutic activities of the "Platinum Blue" complexes were determined using the ascites Sarcoma-180 tumor in Swiss White mice. The protocols for these tests were as follows: Random bred female Swiss White mice (Spartan Laboratory, Williamston, Mich.) of 18-20 grams weight were randomized in groups of six. The ascites cells were removed from the peritoneal cavities of animals with approximately 10 day old ascites tumors. The cells were washed several times with 0.85% saline and spun down each time in a refrigerated centrifuge for 3-5 minutes at 750 r.p.m. After the blood was removed from the cells, they were diluted with 0.85% saline solution and counted in a hemocytometer. A final dilution of 2×10^7 cells/ml. in saline was made. Each animal received 0.2 ml. of this suspension (4×10^6 cells/animals). This was injected intraperitoneally on day 0 of each test. Two groups (12 animals) were kept as negative controls, and the test was terminated at twice the mean day of death of the negative controls. […] All test compounds were injected i.p. on day one as a 0.5 ml. volume of the compound in a carrier of water, physiologic saline or arachis oil (peanut oil). Soluble compounds were always tested in appropriate solutions, the insoluble ones as a slurry. The slurry was sonicated for periods of up to 10 minutes to insure uniformity of dispersion just prior to injections. […] Retests were performed if a sufficient level of drug toxicity at the highest dose was not reached. Animals still alive at the completion of the tests were considered to have died on the day of evaluation. Animals showing no abdominal distention (by palpation, or visibly) on this day were considered cured.
The compounds tested were usually freshly prepared and purified. The compounds kept for further testing were stored in a vacuum dessicator in a dark refrigerator to prevent deterioration. […] Toxic levels are considered to be that concentration where 2 or more of the 6 animals at the dose died within 8 days of injection.
The letter A indicates the "blue" or first isolated precipitate, the letter B, the "green" or second precipitate.

The subject of data set [2] is MCDV 12 (Rauscher Leukemia, Virus Induced). The data set can be described thus: effects on MCDV 12 (Rauscher Leukemia, virus induced) (Table 5). The class given is in vivo, BALB/C Mice. As to conditions: for Survivors: at 200% ILS.
Text: as §1
^a All experiments were terminated arbitrarily at 200% ILS and
survivors tabulated at that time. All therapy was started on third day
after tumor transplant. Untreated tumor controls died 10-11 days after
transplant. In some instances, efforts to reproduce above results have
shown considerable variability.

In another data set the test system is ADJ/PC6A Tumor. Nature of the data set: effects on ADJ/PC6A tumor (Table 7). The class given is in vivo, Female, C^- Mice. Particulars: i.p., single dose, 24 days after tumor implant.

Consider `CC1CNC(=O)NC1=O` (stereo not drawn) [5,6-dihydrothymine Class IA], for which the “% ILS” value came to 30% with L1210 Tumor (30.63 mg/kg q3 hr × 8); 36% in the data set with L1210 Tumor (50 mg/kg qid × 5); 0% with L1210 Tumor (61.25 mg/kg q3 hr × 8); 45% in the data set with L1210 Tumor (100 mg/kg qid × 5); 75% in data set [2] (30.63 mg/kg q3 hr × 8); 157% in data set [2] (50 mg/kg qid × 5). For the same compound, the figures for the “% ILS” value in data set [2] (61.25 mg/kg q3 hr × 6) and in data set [2] (100 mg/kg qid × 5) were 121% and 0%, respectively. In addition, the Survivors with L1210 Tumor (30.63 mg/kg q3 hr × 8) is given as 0/3; in the data set with L1210 Tumor (50 mg/kg qid × 5), 0/3; in the data set on L1210 Tumor (61.25 mg/kg q3 hr × 8) it was 0/3; with L1210 Tumor (100 mg/kg qid × 5), 0/3; in data set [2] (30.63 mg/kg q3 hr × 8) it was 1/3; in data set [2] (50 mg/kg qid × 5), 2/3. The Survivors is 2/3 in data set [2] (61.25 mg/kg q3 hr × 6) and 0/3 in data set [2] (100 mg/kg qid × 5). Also, the “# of cures” value in data set [1] was found to be 2. Also, the “Dose of Best % ILS” value in data set [1] is on record as 200 mg/kg. Also, in data set [1], the “Toxic Level” value came to 400 mg/kg. The “Best % ILS (increase in lifespan)” value in data set [1] was determined as 87%. Moreover, the “ID 90 (90% Inhibition)” value in the data set on ADJ/PC6A Tumor came out at 25 mg/kg. The same compound came in with an LD50 in the data set on ADJ/PC6A Tumor of 135 mg/kg.

`CCOC(=O)c1c[nH]c(=O)[nH]c1=O` [5-carbethoxyuracil Class IA]: in data set [1], the “# of cures” value came to 0, the “Dose of Best % ILS” value turned out to be 200 mg/kg, the “Toxic Level” value is 200 mg/kg and the “Best % ILS (increase in lifespan)” value was 56%. Further, in the data set with ADJ/PC6A Tumor, the “ID 90 (90% Inhibition)” value is 250 mg/kg and the LD50 is given as 670 mg/kg.

Consider `O=c1[nH]cc(CO)c(=O)[nH]1` [5-hydroxymethyluracil Class IA], for which, in data set [1], the “# of cures” value is reported as 2, the “Dose of Best % ILS” value is 100 mg/kg, the “Toxic Level” value is 200 mg/kg and the “Best % ILS (increase in lifespan)” value is 98%. In the data set on ADJ/PC6A Tumor, the “ID 90 (90% Inhibition)” value is reported as 42 mg/kg and the LD50 was 40 mg/kg.

With `O=c1cc(Cl)[nH]c(=O)[nH]1` [6-chlorouracil Class IA], in data set [1], the “# of cures” value was found to be 3, the “Dose of Best % ILS” value was found to be 200 mg/kg, the “Toxic Level” value was above 200 mg/kg and the “Best % ILS (increase in lifespan)” value worked out at 88%. Besides, in the data set with ADJ/PC6A Tumor, the “ID 90 (90% Inhibition)” value was found to be 190 mg/kg and the LD50 was determined as 200 mg/kg.

For the compound `CC#N.CC#N.[Cl][Pt][Cl]` [Pt(CH3 CN)2 Cl2, reference compound], in data set [1], the “# of cures” value was 1, the “Dose of Best % ILS” value was found to be 25 mg/kg, the “Toxic Level” value came to 50 mg/kg and the “Best % ILS (increase in lifespan)” value worked out at 83%. In addition, the gross hepatic damage result in data set [1] (in words) was “exceptions”.

As a reminder, the LD50 is the dose expected to kill half of the subjects tested. High values mean a less toxic substance, low ones a more toxic substance.
